Measured values published in patent US20100284985A1, “Composition” (Danisco A/S, priority 2007, published 2010).

Columns and labels:
[1] = tested on: Klebsiella oxytoca DCS 567; test: MIC assay, LAE; format: cell-based
Method: (§1) The Minimal Inhibition Concentration Assay (MIC) is a 96 well liquid based assay developed for a semi-automated assessment system and performed essentially as described in (7). […] From an overnight culture […] of each strain was inoculated in one well corresponding to an approximate inoculation density of 10^3-10^4 cells/well. Media used were CASO, MRS and YM (Appendix 1). Strains were incubated at 20° C., 25° C., 37° C. and under aerobic/anaerobic conditions depending on the preferred conditions for the particular strain (Appendix 1). At time zero, after adding the AM, the optical density (O.D.) of the bacterial culture is measured at 620 nm and then again after 24 hours. […] MIC is defined as the lowest concentration of the AM that will inhibit measurable growth. A bacteriostatic effect is defined as the OD620 at 24 h being less than or equal to 20% of the growth control.

[2] = tested on: Clostridium sporogenes (spores) DCS 812sp; test: MIC assay, LAE; format: cell-based; settings: ppm of the active component
Method: as §1

[3] = tested on: Citrobacter freundii DCS 566; test: MIC assay, LAE; format: cell-based
Method: as §1

Candida pulcherrima H117 = test: MIC assay, LAE; format: cell-based; settings: ppm of the active component
Method: as §1

[4] = tested on: Clostridium algidicarnis DCS 563; test: MIC assay, LAE; format: cell-based
Method: as §1

[5] = tested on: Lactobacilllus farciminis DCS 611; test: MIC assay, LAE; format: cell-based; settings: ppm of the active component
Method: as §1

Bacillus cereus DCS 500 = test: MIC assay, LAE; format: cell-based
Method: as §1

[6] = tested on: Clostridium sporogenes DCS 808; test: MIC assay, LAE; format: cell-based
Method: as §1

[7] = tested on: Clostridium sporogenes DCS 541; test: MIC assay, LAE; format: cell-based
Method: as §1

Leuconostoc spp. DCS 947 = test: MIC assay, LAE; format: cell-based; settings: ppm of the active component
Method: as §1

[8] = tested on: Lactobacillus fermentum DCS 573; test: MIC assay, LAE; format: cell-based
Method: as §1

[9] = tested on: Listeria monocytogenes DCS 490; test: MIC assay, LAE; format: cell-based
Method: as §1

[10] = tested on: Salmonella typhimurium DCS 223; test: MIC assay, LAE; format: cell-based; settings: ppm of the active component
Method: as §1

[11] = tested on: Candida tropicalis DCS 604; test: MIC assay, LAE; format: cell-based
Method: as §1

[12] = tested on: Bacillus licheniformis (spores) DCS 561sp; test: MIC assay, LAE; format: cell-based; settings: ppm of the active component
Method: as §1

[13] = tested on: Bacillus licheniformis DCS 561; test: MIC assay, LAE; format: cell-based
Method: as §1

[14] = tested on: Bacillus weihenstephanensis DCS 565; test: MIC assay, LAE; format: cell-based
Method: as §1

[15] = tested on: Zygosaccharomyces bailii DCS 538; test: MIC assay, LAE; format: cell-based
Method: as §1

[16] = tested on: Staphylococcus aureus DCS 630; test: MIC assay, LAE; format: cell-based
Method: as §1

Listeria innocua DCS 17 = test: MIC assay, LAE; format: cell-based
Method: as §1

[17] = tested on: Clostridium sporogenes (spores) DCS 541sp; test: MIC assay, LAE; format: cell-based; settings: ppm of the active component
Method: as §1

[18] = tested on: Saccharomyces cerevisiae DCS 599; test: MIC assay, LAE; format: cell-based
Method: as §1

[19] = tested on: Rhodotorula mucilaginosa H116; test: MIC assay, LAE; format: cell-based; settings: ppm of the active component
Method: as §1

[20] = tested on: Leuconostoc mesenteroides ss DCS 512; test: MIC assay, LAE; format: cell-based
Method: as §1

Escherichia coli DCS 497 = test: MIC assay, LAE; format: cell-based
Method: as §1

Pichia anomala DCS 603 = test: MIC assay, LAE; format: cell-based
Method: as §1

[21] = tested on: Debaryomyces hansenii DCS 605; test: MIC assay, LAE; format: cell-based
Method: as §1

[22] = tested on: Clostridium sporogenes DCS 812; test: MIC assay, LAE; format: cell-based
Method: as §1

Hafnia alvei DCS 613 = test: MIC assay, LAE; format: cell-based
Method: as §1

[23] = tested on: Brochothrix thermosphacta DCS 780; test: MIC assay, LAE; format: cell-based
Method: as §1

[24] = tested on: Listeria monocytogenes DCS 489; test: MIC assay, LAE; format: cell-based
Method: as §1

[25] = tested on: Clostridium sporogenes (spores) DCS 808sp; test: MIC assay, LAE; format: cell-based; settings: ppm of the active component
Method: as §1

[26] = tested on: Salmonella typhimurium DCS 218; test: MIC assay, LAE; format: cell-based; settings: ppm of the active component
Method: as §1

[27] = tested on: Bacillus licheniformis DCS 561; test: FIC checkerboard assay, LAE with Nisaplin; format: cell-based
Method: (§2) The Fractional Inhibition Concentration (FIC) assay is also a 96 well liquid based assay with a checkerboard titration layout (7, 8), one plate for each strain and sets of concentrations. Cultivation media can be seen in Appendix 1. O.D. at 620 nm is read at zero hours (at strain addition) and after a 24-hour incubation period. […] The FICs for the two substances are plotted towards each other in a graph called an isobologram. […] Additionally, the FIC index is then calculated as follows: FICindex=FICA+FICB, if FICindex is lower than 1 there is synergy, if it is higher than one there is antagony and if it is equal to one there is an additive effect.
(§3) FICs were determined for LAE in combination with Nisaplin and Natamax for strains in Table 1A and B.

[28] = tested on: Brochothrix thermosphacta DCS 780; test: FIC checkerboard assay, LAE with Nisaplin; format: cell-based
Method: as §2, §3

[29] = tested on: Listeria monocytogenes DCS 489; test: FIC checkerboard assay, LAE with Nisaplin; format: cell-based
Method: as §2, §3

[30] = tested on: Lactobacilllus sakei DCS 608; test: MIC assay, LAE; format: cell-based, Lactobacillus sakei; settings: Latilactobacillus sakei, DCS608, ppm of the active component
Method: as §1

[31] = tested on: Lactobacilllus curvatus DCS 609; test: MIC assay, LAE; format: cell-based, Lactobacillus curvatus; settings: Latilactobacillus curvatus, DCS609, ppm of the active component
Method: as §1

[32] = Klebsiella oxytoca, DCS567, ppm of the active component
[33] = Citrobacter freundii, DCS566, ppm of the active component
[34] = Clostridium algidicarnis, DCS563, ppm of the active component
[35] = Bacillus cereus, DCS500, ppm of the active component
[36] = Clostridium sporogenes, DCS808, ppm of the active component
[37] = Clostridium sporogenes, DCS541, ppm of the active component
[38] = Listeria monocytogenes, DCS490, ppm of the active component
[39] = Salmonella enterica, TYPHIMURIUM
[40] = Candida tropicalis, DCS604, ppm of the active component
[41] = Bacillus licheniformis, DCS561, ppm of the active component
[42] = Bacillus mycoides, DCS565, ppm of the active component
[43] = Zygosaccharomyces bailii, DCS538, ppm of the active component
[44] = Staphylococcus aureus, DCS630, ppm of the active component
[45] = Listeria innocua, DCS17, ppm of the active component
[46] = Saccharomyces cerevisiae, DCS599, ppm of the active component
[47] = Leuconostoc mesenteroides, SSDCS512, ppm of the active component
[48] = Escherichia coli, DCS497, ppm of the active component
[49] = Hansenula anomala, DCS603, ppm of the active component
[50] = Debaryomyces hansenii, DCS605, ppm of the active component
[51] = Clostridium sporogenes, DCS812, ppm of the active component
[52] = Hafnia alvei, DCS613, ppm of the active component
[53] = Brochothrix thermosphacta, DCS780, ppm of the active component
[54] = Listeria monocytogenes, DCS489, ppm of the active component

## CCCCCCCCCCCC(=O)N[C@@H](CCCNC(=N)N)C(=O)OCC.Cl [LAE, N^α-Lauroyl-L-arginine ethyl ester monohydrochloride]
[1]; [32]
  MBC: 41 µg/mL
  MIC: 32.8 µg/mL
[1]; ppm of the active component
  increased lag phase: 18.2 ppm
[2]; Clostridium sporogenes
  MBC: 8.1 µg/mL
  MIC: 4.3 µg/mL
[2]
  increased lag phase: 4.3 ppm
[3]; [33]
  MBC: 21.9 µg/mL
  MIC: 18.2 µg/mL
[3]; ppm of the active component
  increased lag phase: 8.1 ppm
Candida pulcherrima H117; Metschnikowia pulcherrima
  MBC: 14.6 µg/mL
  MIC: 9.7 µg/mL
Candida pulcherrima H117
  increased lag phase: 6.5 ppm
[4]; [34]
  MBC: 14.9 µg/mL
  MIC: 9.7 µg/mL
[4]; ppm of the active component
  increased lag phase: 6.5 ppm
[5]
  MBC: > 166 µg/mL
  MIC: 49.2 µg/mL
  increased lag phase: 49.2 ppm
Bacillus cereus DCS 500; [35]
  MBC: 14.6 µg/mL
  MIC: 12.1 µg/mL
Bacillus cereus DCS 500; ppm of the active component
  increased lag phase: 6.5 ppm
[6]; [36]
  MBC: 9.7 µg/mL
  MIC: 9.7 µg/mL
[6]; ppm of the active component
  increased lag phase: 9.7 ppm
[7]; [37]
  MBC: 9.7 µg/mL
  MIC: 9.7 µg/mL
[7]; ppm of the active component
  increased lag phase: 9.7 ppm
Leuconostoc spp. DCS 947; Leuconostoc
  MBC: > 166 µg/mL
  MIC: 32.8 µg/mL
Leuconostoc spp. DCS 947
  increased lag phase: 32.8 ppm
[8]; DCS573, ppm of the active component
  MBC: > 166 µg/mL
[8]; Limosilactobacillus reuteri, DCS573, ppm of the active component
  MIC: 73.8 µg/mL
[8]; ppm of the active component
  increased lag phase: 73.8 ppm
[9]; [38]
  MBC: 12.2 µg/mL
  MIC: 12.1 µg/mL
[9]; ppm of the active component
  increased lag phase: 8.1 ppm
[10]; [39]
  MBC: 32.8 µg/mL
  MIC: 21.9 µg/mL
[10]
  increased lag phase: 14.6 ppm
[11]; [40]
  MBC: 4.3 µg/mL
  MIC: 4.3 µg/mL
[11]; ppm of the active component
  increased lag phase: 4.3 ppm
[12]; Bacillus licheniformis
  MBC: 61.5 µg/mL
  MIC: 6.5 µg/mL
[12]
  increased lag phase: 6.5 ppm
[13]; [41]
  MBC: 14.6 µg/mL
  MIC: 14.6 µg/mL
[13]; ppm of the active component
  increased lag phase: 4.3 ppm
[14]; [42]
  MBC: 14.6 µg/mL
  MIC: 14.6 µg/mL
[14]; ppm of the active component
  increased lag phase: 10.5 ppm
[15]; [43]
  MBC: 6.5 µg/mL
  MIC: 6.5 µg/mL
[15]; ppm of the active component
  increased lag phase: 4.3 ppm
[16]; [44]
  MBC: 18.3 µg/mL
  MIC: 14.6 µg/mL
[16]; ppm of the active component
  increased lag phase: 14.6 ppm
Listeria innocua DCS 17; [45]
  MBC: 21.9 µg/mL
  MIC: 12.1 µg/mL
Listeria innocua DCS 17; ppm of the active component
  increased lag phase: 5.4 ppm
[17]; Clostridium sporogenes
  MBC: 14.6 µg/mL
  MIC: 9.7 µg/mL
[17]
  increased lag phase: 9.7 ppm
[18]; [46]
  MBC: 14.6 µg/mL
  MIC: 14.6 µg/mL
[18]; ppm of the active component
  increased lag phase: 14.6 ppm
[19]; Rhodotorula mucilaginosa
  MBC: 6.5 µg/mL
  MIC: 6.5 µg/mL
[19]
  increased lag phase: 4.3 ppm
[20]; [47]
  MBC: > 166 µg/mL
  MIC: 41 µg/mL
[20]; ppm of the active component
  increased lag phase: 32.8 ppm
Escherichia coli DCS 497; [48]
  MBC: 21.9 µg/mL
  MIC: 21.9 µg/mL
Escherichia coli DCS 497; ppm of the active component
  increased lag phase: 18.2 ppm
Pichia anomala DCS 603; [49]
  MBC: 111 µg/mL
  MIC: 73.8 µg/mL
Pichia anomala DCS 603; ppm of the active component
  increased lag phase: 32.8 ppm
[21]; [50]
  MBC: 4.3 µg/mL
  MIC: 4.3 µg/mL
[21]; ppm of the active component
  increased lag phase: 4.3 ppm
[22]; [51]
  MBC: 9.7 µg/mL
  MIC: 9.7 µg/mL
[22]; ppm of the active component
  increased lag phase: 9.7 ppm
Hafnia alvei DCS 613; [52]
  MBC: 27.4 µg/mL
  MIC: 21.9 µg/mL
Hafnia alvei DCS 613; ppm of the active component
  increased lag phase: 10.5 ppm
[23]; [53]
  MBC: 9.7 µg/mL
  MIC: 8.1 µg/mL
[23]; ppm of the active component
  increased lag phase: 4.3 ppm
[24]; [54]
  MBC: 14.6 µg/mL
  MIC: 12.1 µg/mL
[24]; ppm of the active component
  increased lag phase: 9.7 ppm
[25]; Clostridium sporogenes
  MBC: 18.3 µg/mL
  MIC: 8.1 µg/mL
[25]
  increased lag phase: 8.1 ppm
[26]; [39]
  MBC: 49.2 µg/mL
  MIC: 32.8 µg/mL
[26]
  increased lag phase: 12.1 ppm
[27]; Nisaplin 50 ppm + LAE 22.2 ppm
  FICLAE: 0.44
[27]; Nisaplin 130 ppm + LAE 14.8 ppm
  FICLAE: 0.30
[27]; Nisaplin 210 ppm + LAE 9.9 ppm
  FICLAE: 0.20
[27]; Nisaplin 250 ppm + LAE 0 ppm
  FICLAE: 0.00
[28]; Nisaplin 50 ppm + LAE 33 ppm
  FICLAE: 0.67
[28]; Nisaplin 90 ppm + LAE 22 ppm
  FICLAE: 0.44
[28]; Nisaplin 210 ppm + LAE 0 ppm
  FICLAE: 0.00
[29]; Nisaplin 0 ppm + LAE 50 ppm
  FICLAE: 1.00
[29]; Nisaplin 50 ppm + LAE 22 ppm
  FICLAE: 0.44
[29]; Nisaplin 90 ppm + LAE 15 ppm
  FICLAE: 0.30
[29]; Nisaplin 130 ppm + LAE 5 ppm
  FICLAE: 0.09
[29]; Nisaplin 170 ppm + LAE 4 ppm
  FICLAE: 0.04
[29]; Nisaplin 210 ppm + LAE 1 ppm
  FICLAE: 0.02
[29]; Nisaplin 250 ppm + LAE 0 ppm
  FICLAE: 0.00
[30]
  MBC: > 166 µg/mL
  MIC: 32.8 µg/mL
[31]
  MBC: > 166 µg/mL
  MIC: 32.8 µg/mL
